The values that follow are results of earlier work, collected in patent US12575570B2, “Aqueous composition of Epyrifenacil, Mesotrione and Pyroxasulfone” (Valent U.S.A. LLC, priority 2020, dated 2026).

On to `CS(=O)(=O)c1ccc(C(=O)C2C(=O)CCCC2=O)c([N+](=O)[O-])c1` [mesotrione, 2-(4-mesyl-2-nitrobenzoyl)cyclohexane-1,3-dione], for which the water solubility was 160 ppm.
